Data taken from patent US8940340B2, “Systems and methods for maintaining the dominance of Nannochloropsis in an algae cultivation system” (Aurora Algae, Inc., priority 2009, dated 2015).

Columns and labels:
Nannochloropsis [1] = assay: hypochlorite kill curve: dry biomass productivity of laboratory Nannochloropsis cultures; format: cell-based; details: for Mean Productivity of Nannochloropsis: daily addition
Method: Algal cultivation: 800 ml cultures are maintained in one inch thick Roux flasks with continuous magnetic stirring. Continuous illumination at 700 MicroEinsteins per meter squared per second is provided by four 54-watt T5 fluorescent bulbs rated with a correlated color temperature of […]. 1% CO2 is bubbled through […] rate sufficient to maintain a pH between 7.0 and 8.5. Photoautotrophic growth is maintained on UFM media formulated with artificial seawater (35 g/L Instant Ocean) containing 720 mg/L urea, 168 mg/L K2HPO4, 1.5 ml/L of a metals solution and 1 ml/L of a vitamin solution. The metals solution contains 39.7 g/L Fe(III)Cl3(6H2O), 30.0 g/L EDTA, 1.2 g/L MnCl2(4H2O), 0.08 g/L CoCl2(6H2O), 0.16 g/L ZnSO4(7H2O), 0.067 g/L CuSO4(5H2O), 0.023 g/L Na2MoO4(2H2O). The vitamins solution contains 0.001 g/L vitamin B12, 0.001 g/L Biotin, and 0.2 g/L Thiamine. Cultures are diluted by exchanging 400 ml of culture with fresh media every day at the same time. From the 400 ml that are removed, the dry biomass concentration is determined as below. Determination of culture biomass concentration: A sample of the culture between 0.5 and five milliliters is vacuum filtered through a pre-rinsed and pre-ashed Whatman GF/C glass microfiber filter disc. The cake is rinsed with twenty milliliters of 0.7M ammonium formate and dried for at least 2 hours at 105° C. The dried sample is weighed on an analytical balance and then ashed at 550° C. for at least 1 hour. The post ash weight is subtracted from the pre-ash weight and divided by the volume of the sample to get the ash-free dry biomass density in milligrams per milliliter. Given the dilution volume and the previous day's dry biomass concentration, the current day's dry biomass concentration can be used to establish the culture's dry biomass productivity in grams per liter per day. This productivity value can then be compared across different experimental conditions. For the hypochlorite kill curve, four cultures are measured for productivity as above, each of which receives a different dose of sodium hypochlorite with the fresh media that is added at dilution time. The final concentration of sodium hypochlorite following dilution for each of the four cultures is 0, 20, 40 and 80 milligrams per liter.

Nannochloropsis [2] = assay: outdoor open pond cultivation with chlorine addition (condition four)
Method: Chlorine compounds may be added directly to the cultivation vessel. They may be added to the water of dilution of the cultivation vessel. In either case they may be added in solid (granular) form, liquid form, or as chlorine gas. In experiments performed by the inventors, the chlorine was added as a liquid (e.g., sodium hypochlorite). Typically, 10-12% solutions of sodium hypochlorite were diluted 10 to 100 fold and added directly to the cultivation reactor to achieve the initial concentration of sodium hypochlorite cited in each case.
(§1) In the following examples, Nannochloropsis was grown in outdoor, open, ponds in Vero Beach, Fla. The climate in Vero Beach is semitropical, with mild winters and hot, humid summers. It is a challenging climate for keeping outdoor algal cultures stable and productive. The overnight warmth encourages predation by protozoa, rotifers, and crustaceans. The humidity allows the airborne transport of competing algae, and thus increases the rate of invasion. In some of the examples the techniques applied were successful in keeping Nannochloropsis as the dominant alga, at ninety-five percent (95%) to nearly one-hundred percent (100%) of the algal biomass, even when competitors and/or predators were intentionally introduced to the algae cultivation system. In some cases, predators were undetectable most of the time, even after they were intentionally introduced.
Ten ponds (four 1.4 square meter, four 3 square meter, and two approximately 200 square meter) were used to test many conditions of salinity and chlorination over fifteen months. Not all of the conditions were run for that whole time period. The results from the following seven conditions are summarized below: 1) 35-36 PPT (full) seawater salinity, 2) 28-30 PPT (dilution of full seawater with fresh water in a ratio of 3:1), 3) 22-24 PPT (dilution of full seawater with fresh water in a ratio of about 2:1), 4) condition no. 3 with chlorine added to the pond every other day to an initial concentration of sodium hypochlorite of 3 ppm, 5) 10-12 PPT (dilution of full seawater with fresh water in a ratio of about 1:2), 6) 5-7 PPT (dilution of full seawater with fresh water in a ratio of about 1:6. and 7) about 1 PPT (dilution of seawater with fresh water in a ratio of about 1:40).
Condition four was run from Oct. 4, 2007 until Jun. […] Commercial chlorine solutions were added to the algae cultivation systems every other day to obtain an initial concentration of 2.5-3 mg of sodium hypochlorite. […] The Nannochloropsis was cultivated without interruption and at greater than 95% dominance, throughout the entire cultivation period (over eight months). […] Species added included Tetraselmis and Dunaliella, along with amoeba, protozoa, and crustaceans. The Tetraselmis and Dunaliella cultures were decimated by the predators. The predators were not observable in the Nannochloropsis cultures after a few days.

[3] = system: predators (amoeba, protozoa, and crustaceans); assay: outdoor open pond cultivation with chlorine addition: growth of introduced predators; details: 2.5-3 mg every other day, 22-24 PPT
Method: as §1
Ten ponds (four 1.4 square meter, four 3 square meter, and two approximately 200 square meter) were used to test many conditions of salinity and chlorination over fifteen months. Not all of the conditions were run for that whole time period. The results from the following seven conditions are summarized below: 1) 35-36 PPT (full) seawater salinity, 2) 28-30 PPT (dilution of full seawater with fresh water in a ratio of 3:1), 3) 22-24 PPT (dilution of full seawater with fresh water in a ratio of about 2:1), 4) condition no. […]

OCl [sodium hypochlorite]
survival of Nannochloropsis cultures after extremely high exposure (Nannochloropsis [1]; above 80 milligrams/liter, exposure not prolonged): recover
productivity of Nannochloropsis in the first two days following administration (Nannochloropsis [1]; at least 80 milligrams/liter): zero productivity
time for Nannochloropsis to recover after shock injection (Nannochloropsis [1]; shock amount, initial concentration 40-80 milligrams/liter or higher): two to three
Mean Productivity of Nannochloropsis (Nannochloropsis [1]; sodium hypochlorite 20 Milligrams/Liter): 570 Milligrams/Liter/Day
Mean Productivity of Nannochloropsis (Nannochloropsis [1]; sodium hypochlorite 40 Milligrams/Liter): 460 Milligrams/Liter/Day
Mean Productivity of Nannochloropsis (Nannochloropsis [1]; sodium hypochlorite 80 Milligrams/Liter): 0 Milligrams/Liter/Day
Nannochloropsis dominance throughout the cultivation period (Nannochloropsis [2]; 2.5-3 mg every other day, 22-24 PPT, over eight months): greater than 95%
contamination versus non-chlorinated cultures at the same salinity (Nannochloropsis [2]; 22-24 PPT, cooler months): no observable difference
contamination versus non-chlorinated cultures at the same salinity (Nannochloropsis [2]; 22-24 PPT, warmer months of the year): less contamination than non-chlorinated cultures
culture stability over the run (Nannochloropsis [2]; condition four, about 250 days): without stability problems
effect on productivity compared to condition three with no added chlorine (Nannochloropsis [2]; initial concentration 2.5-3 mg every other day, salinity 22-24 PPT): often had no effect on productivity
growth of predators added to the chlorinated cultures [3]: No predators were able to grow
